Source: ChEMBL document CHEMBL5360581, “Discovery of a novel dual functional phenylpyrazole-styryl hybrid that induces apoptotic and autophagic cell death in bladder cancer cells” (Eur J Med Chem, 2023)
Calls of active or inactive are those of the source. The rule behind the calls is not given here.

Tests used:
EJ-28 [1] = test: Induction of apoptosis in human EJ-28 cells assessed as upregulation of cleaved caspases-9 expression by Western blotting analysis; format: functional, cell-based; conditions: time 24-72 hrs
EJ-28 [2] = test: Induction of cell cycle arrest in human EJ-28 cells assessed as accumulation of cells at S phase at 2.5 uM incubated for 48 hrs by propidium iodide staining based flow cytometry (reference value: 30%); format: functional
[3] = Selectivity index, ratio of IC50 for cytotoxicity against human NHDF cells to IC50 for cytotoxicity against human HT-1080 cells
EJ-28 [4] = test: Induction of cell cycle arrest in human EJ-28 cells assessed as accumulation of cells at G2/M phase at 10 uM incubated for 48 hrs by propidium iodide staining based flow cytometry (reference value: 20%); format: functional
EJ-28 [5] = test: Induction of autophagy in human EJ-28 cells assessed as downregulation of EGFR expression at 5 to 12.5 uM incubated for 24 hrs by Western blot analysis; format: functional, cell-based; conditions: dose 5-12.5 µM
EJ-28 [6] = test: Induction of autophagy in human EJ-28 cells assessed as upregulation of LC3B-2 expression at 5 to 12.5 uM incubated for 24 to 72 hrs by Western blot analysis; format: functional, cell-based; conditions: dose 5-12.5 µM, time 24-72 hrs
EJ-28 [7] = test: Induction of autophagy in human EJ-28 cells assessed as upregulation of Beclin-1 expression at 5 to 12.5 uM incubated for 24 to 72 hrs by Western blot analysis; format: functional, cell-based; conditions: dose 5-12.5 µM, time 24-72 hrs
[8] = Toxicity in Zebrafish embryo assessed as mortality at 12.5 to 50 uM administered for 4 hrs post fertilization and measured after 6 days post fertilization; design: species or system Danio rerio; conditions: in vivo, 144 h, dose 12.5-50 µM, time 6 day
EJ-28 [9] = test: Induction of apoptosis in human EJ-28 cells assessed as upregulation of phosphorylated […] level incubated for 24 to 72 hrs by Western blotting analysis; format: functional, cell-based; conditions: time 24-72 hrs
[10] = Toxicity in Zebrafish embryo assessed as body curvature at 12.5 uM administered for 4 hrs post fertilization and measured after 3 days post fertilization; design: species or system Danio rerio; conditions: in vivo, 72 h, time 3 day
EJ-28 [11] = test: Induction of morphological changes in human EJ-28 cells assessed as cell rounding at 7.5 uM incubated for 24 to 72 hrs by microscopic analysis; format: functional, cell-based; conditions: time 24-72 hrs
[12] = Toxicity in Zebrafish embryo assessed as mild bradycardia at 50 uM administered for 4 hrs post fertilization and measured after 3 days post fertilization; design: species or system Danio rerio; conditions: in vivo, 72 h, time 3 day
HT-1080 [13] = test: Antiproliferative activity against human HT-1080 cells assessed as reduction in cell viability at 20 uM measured for 72 hrs by MTT assay; format: functional, cell-based
A549 [14] = test: Antiproliferative activity against human A549 cells assessed as reduction in cell viability at 20 uM measured for 72 hrs by MTT assay; format: functional, cell-based
A549 [15] = test: Cytotoxicity against human A549 cells assessed inhibition of cell growth incubated for 72 hrs by MTT assay; format: functional, cell-based; conditions: A549, 72 h
HT-1080 [16] = test: Cytotoxicity against human HT-1080 cells assessed inhibition of cell growth incubated for 72 hrs by MTT assay; format: functional, cell-based; conditions: HT-1080, 72 h
EJ-28 [17] = test: Cytotoxicity against human EJ-28 cells assessed inhibition of cell growth incubated for 72 hrs by MTT assay; format: functional, cell-based; conditions: EJ-28, 72 h
T-24 = test: Induction of morphological changes in human T24 cells assessed as intracellular vacuolization at 7.5 uM incubated for 48 hrs by microscopic analysis; format: functional, cell-based
EJ-28 [18] = test: Induction of apoptosis in human EJ-28 cells assessed as upregulation of Mcl-1 expression incubated for 24 hrs by Western blotting analysis; format: functional, cell-based
EJ-28 [19] = test: Induction of cell cycle arrest in human EJ-28 cells assessed as accumulation of cells at G2/M phase at 5 uM incubated for 48 hrs by propidium iodide staining based flow cytometry (reference value: 20%); format: functional
EJ-28 [20] = test: Induction of apoptosis in human EJ-28 cells assessed as upregulation of NOXA expression incubated for 24 hrs by Western blotting analysis; format: functional, cell-based
EJ-28 [21] = test: Induction of cell cycle arrest in human EJ-28 cells assessed as accumulation of cells at S phase at 10 uM incubated for 48 hrs by propidium iodide staining based flow cytometry (reference value: 30%); format: functional
EJ-28 [22] = test: Induction of apoptosis in human EJ-28 cells assessed as upregulation of PUMA expression incubated for 48 hrs by Western blotting analysis; format: functional, cell-based
EJ-28 [23] = test: Induction of apoptosis in human EJ-28 cells assessed as upregulation of Bad expression incubated for 48 hrs by Western blotting analysis; format: functional, cell-based
EJ-28 [24] = test: Induction of cell cycle arrest in human EJ-28 cells assessed as accumulation of cells at sub-G0/G1 phase at 5 uM incubated for 48 hrs by propidium iodide staining based flow cytometry (reference value: 48%); format: functional
[25] = Selectivity index, ratio of IC50 for cytotoxicity against human NHDF cells to IC50 for cytotoxicity against human A549 cells; format: toxicity, cell-based; conditions: NHDF cells and A549 cells, read-out: Ratio IC50
EJ-28 [26] = test: Induction of cell cycle arrest in human EJ-28 cells assessed as accumulation of cells at G2/M phase at 2.5 uM incubated for 48 hrs by propidium iodide staining based flow cytometry (reference value: 20%); format: functional
EJ-28 [27] = test: Induction of cell cycle arrest in human EJ-28 cells assessed as accumulation of cells at sub-G0/G1 phase at 10 uM incubated for 48 hrs by propidium iodide staining based flow cytometry (reference value: 48%); format: functional
EJ-28 [28] = test: Induction of apoptosis in human EJ-28 cells assessed as upregulation of cleaved caspases-8 expression by Western blotting analysis; format: functional, cell-based; conditions: time 24-72 hrs
EJ-28 [29] = test: Induction of apoptosis in human EJ-28 cells assessed as upregulation of Bax expression incubated for 48 to 72 hrs by Western blotting analysis; format: functional, cell-based; conditions: time 48-72 hrs
MCF7 = test: Antiproliferative activity against human MCF7 cells assessed as reduction in cell viability at 20 uM measured for 72 hrs by MTT assay; format: functional, cell-based
EJ-28 [30] = test: Anticancer activity against human EJ-28 cells cultured as 3D spheroids at 2.5 to 20 uM measured upto 5 days by PI/Hoechst 33342 staining based fluorescence microscopic analysis; format: functional, cell-based; conditions: dose 2.5-20 µM, time <= 5.0 day
EJ-28 [31] = test: Anticancer activity against human EJ-28 cells cultured as 3D spheroids assessed as decrease in spheroid size at 5 to 20 uM measured upto 5 days by fluorescence microscopic analysis; format: functional, cell-based; conditions: dose 5-20 µM, time <= 5.0 day
[32] = Selectivity index, ratio of IC50 for cytotoxicity against human NHDF cells to IC50 for cytotoxicity against human EJ-28 cells
EJ-28 [33] = test: Induction of autophagy in human EJ-28 cells assessed as autophagic flux at 5 to 12.5 uM incubated for 36 to 48 hrs by flow cytometry analysis; format: functional, cell-based; conditions: dose 5-12.5 µM, time 36-48 hrs
EJ-28 [34] = test: Induction of cell cycle arrest in human EJ-28 cells assessed as accumulation of cells at S phase at 5 uM incubated for 48 hrs by propidium iodide staining based flow cytometry (reference value: 30%); format: functional
EJ-28 [35] = test: Induction of apoptosis in human EJ-28 cells assessed as upregulation of PARP expression incubated for 48 to 72 hrs by Western blotting analysis; format: functional, cell-based; conditions: time 48-72 hrs
EJ-28 [36] = test: Induction of apoptosis in human EJ-28 cells assessed as upregulation of Bak expression incubated for 24 hrs by Western blotting analysis; format: functional, cell-based

O=[N+]([O-])c1cccc(/C=C/c2cc(-c3cc(Cl)ccc3O)n(-c3ccccc3)n2)c1
Activity (EJ-28 [1]): Dose-Dependent Effect | Activity (EJ-28 [2]): 16% | Ratio IC50 [3]: 2.6 | Activity (EJ-28 [4]): 17% | Activity (EJ-28 [5]): Active | Activity (EJ-28 [6]): Active | Activity (EJ-28 [7]): inactive | Activity [8]: Non-Toxic | Activity (EJ-28 [9]): Active | Activity [10]: Non-Toxic | Activity (EJ-28 [11]): Active | Activity [12]: Toxic | Activity (HT-1080 [13]): Active | Activity (A549 [14]): Active | IC50 (A549 [15]): 15.1 µM | IC50 (HT-1080 [16]): 13 µM | IC50 (EJ-28 [17]): 2.8 µM | Activity (T-24): Active | Activity (EJ-28 [18]): Active | Activity (EJ-28 [19]): 19% | Activity (EJ-28 [20]): Active | Activity (EJ-28 [21]): 23% | Activity (EJ-28 [22]): Active | Activity (EJ-28 [23]): Active | Activity (EJ-28 [24]): 58% | selectivity ratio [25]: 2.6 | Activity (EJ-28 [26]): 15% | Activity (EJ-28 [27]): 58% | Activity (EJ-28 [28]): Dose-Dependent Effect | Activity (EJ-28 [29]): Active | Activity (MCF7): Active | Activity (EJ-28 [30]): Active | Activity (EJ-28 [31]): Active | Ratio IC50 [32]: 2.6 | Activity (EJ-28 [33]): Active | Activity (EJ-28 [34]): 21% | Activity (EJ-28 [35]): inactive | Activity (EJ-28 [36]): Active
